Where two headings read alike, the source gives them in different places.

Holding throughout (assay type): biochemical
For assay [1], the target named is 320 wild-type protein kinases (Homo sapiens, UniProt O60566). To be noted: BUB1B, singlicate. The source says:
(§1) Table S4. Profiling of two compounds at two concentrations against 320 wild-type protein kinases; singlicate measurement; Residual activities (% of control).

The target in assay [2] is 320 wild-type protein kinases (Homo sapiens, UniProt P27448). As to conditions: singlicate.
Sequence of 320 wild-type protein kinases (Homo sapiens, UniProt P27448) (P27448 whole entry): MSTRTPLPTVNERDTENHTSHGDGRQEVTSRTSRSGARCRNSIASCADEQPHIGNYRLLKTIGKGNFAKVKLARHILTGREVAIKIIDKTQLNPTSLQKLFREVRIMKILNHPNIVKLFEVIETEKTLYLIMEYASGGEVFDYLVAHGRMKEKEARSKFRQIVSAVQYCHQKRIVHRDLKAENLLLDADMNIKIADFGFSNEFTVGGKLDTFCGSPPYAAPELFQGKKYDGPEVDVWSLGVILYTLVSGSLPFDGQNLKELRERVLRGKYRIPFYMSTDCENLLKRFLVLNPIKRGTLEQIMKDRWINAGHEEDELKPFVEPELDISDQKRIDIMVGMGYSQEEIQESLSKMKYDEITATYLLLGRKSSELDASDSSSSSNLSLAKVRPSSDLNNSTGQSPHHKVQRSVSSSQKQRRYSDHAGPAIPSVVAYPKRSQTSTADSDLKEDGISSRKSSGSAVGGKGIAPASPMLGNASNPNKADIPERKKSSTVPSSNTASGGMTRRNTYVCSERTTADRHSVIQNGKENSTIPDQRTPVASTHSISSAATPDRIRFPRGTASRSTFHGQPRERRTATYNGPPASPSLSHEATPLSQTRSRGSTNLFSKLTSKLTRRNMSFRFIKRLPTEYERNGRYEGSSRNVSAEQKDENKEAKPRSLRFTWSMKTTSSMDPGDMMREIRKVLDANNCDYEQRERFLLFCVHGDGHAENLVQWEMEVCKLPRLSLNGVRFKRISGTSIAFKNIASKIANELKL
Description: as §1

Assay [3] deals with T1, 320 wild-type protein kinases (Homo sapiens, UniProt P36896).
T1 sequence (P36896 24-505): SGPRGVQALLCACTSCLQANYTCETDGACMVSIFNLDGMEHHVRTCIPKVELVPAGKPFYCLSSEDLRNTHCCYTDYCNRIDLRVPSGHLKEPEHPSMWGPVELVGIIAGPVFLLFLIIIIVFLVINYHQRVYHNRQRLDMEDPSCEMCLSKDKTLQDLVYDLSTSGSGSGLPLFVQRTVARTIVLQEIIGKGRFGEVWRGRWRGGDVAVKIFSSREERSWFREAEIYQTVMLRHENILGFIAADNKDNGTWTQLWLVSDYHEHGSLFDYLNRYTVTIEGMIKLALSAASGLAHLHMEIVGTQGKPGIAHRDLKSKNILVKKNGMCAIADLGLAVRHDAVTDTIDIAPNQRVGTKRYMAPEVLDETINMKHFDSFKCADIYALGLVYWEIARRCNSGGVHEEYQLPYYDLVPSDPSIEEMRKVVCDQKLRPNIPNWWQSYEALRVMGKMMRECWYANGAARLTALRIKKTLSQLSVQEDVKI
As to conditions: ACV-R1B, singlicate.
Description: as §1

Assay [4] addresses 320 wild-type protein kinases (Homo sapiens, UniProt P49759). To be noted: singlicate.
Description: as §1

The target of assay [5] is 320 wild-type protein kinases (Homo sapiens, UniProt P49760). To be noted: singlicate.
Description: as §1

In assay [6] the target is T2, 320 wild-type protein kinases (Homo sapiens, UniProt P52333).
T2 sequence (P52333 1-1124): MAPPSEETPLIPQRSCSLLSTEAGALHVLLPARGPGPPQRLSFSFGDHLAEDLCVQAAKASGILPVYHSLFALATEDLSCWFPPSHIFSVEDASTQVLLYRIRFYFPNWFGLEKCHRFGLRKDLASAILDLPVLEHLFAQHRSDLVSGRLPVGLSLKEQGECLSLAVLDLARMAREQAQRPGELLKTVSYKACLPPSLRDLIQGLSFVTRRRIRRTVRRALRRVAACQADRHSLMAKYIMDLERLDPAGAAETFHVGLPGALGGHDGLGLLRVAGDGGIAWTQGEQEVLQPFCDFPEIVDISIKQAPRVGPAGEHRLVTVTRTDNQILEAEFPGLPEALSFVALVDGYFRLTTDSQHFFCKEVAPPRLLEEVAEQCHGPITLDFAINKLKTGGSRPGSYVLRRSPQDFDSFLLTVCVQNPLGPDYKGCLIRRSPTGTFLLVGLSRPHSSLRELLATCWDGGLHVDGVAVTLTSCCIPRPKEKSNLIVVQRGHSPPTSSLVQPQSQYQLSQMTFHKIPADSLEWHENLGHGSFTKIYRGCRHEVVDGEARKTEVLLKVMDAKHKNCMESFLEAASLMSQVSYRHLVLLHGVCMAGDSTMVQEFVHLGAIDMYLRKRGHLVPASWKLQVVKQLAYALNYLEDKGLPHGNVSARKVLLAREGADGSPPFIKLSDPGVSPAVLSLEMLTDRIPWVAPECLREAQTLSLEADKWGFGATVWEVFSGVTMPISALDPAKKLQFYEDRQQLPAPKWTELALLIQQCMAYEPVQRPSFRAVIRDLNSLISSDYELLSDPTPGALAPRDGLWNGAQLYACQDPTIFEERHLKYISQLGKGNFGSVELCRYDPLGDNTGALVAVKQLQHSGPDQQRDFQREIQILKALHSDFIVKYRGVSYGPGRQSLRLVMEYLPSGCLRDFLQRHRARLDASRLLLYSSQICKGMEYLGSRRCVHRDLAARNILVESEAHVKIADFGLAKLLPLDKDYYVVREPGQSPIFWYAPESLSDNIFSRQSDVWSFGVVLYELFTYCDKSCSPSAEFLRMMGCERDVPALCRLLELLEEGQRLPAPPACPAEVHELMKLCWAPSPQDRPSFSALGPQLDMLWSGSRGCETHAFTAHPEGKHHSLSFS
As to conditions: singlicate.
Description: as §1

The target of assay [7] is 320 wild-type protein kinases (Homo sapiens, UniProt Q13177). To be noted: singlicate.
Description: as §1

Assay [8] deals with 320 wild-type protein kinases (Homo sapiens, UniProt Q16644). As to conditions: singlicate.
Sequence of 320 wild-type protein kinases (Homo sapiens, UniProt Q16644) (Q16644 whole entry): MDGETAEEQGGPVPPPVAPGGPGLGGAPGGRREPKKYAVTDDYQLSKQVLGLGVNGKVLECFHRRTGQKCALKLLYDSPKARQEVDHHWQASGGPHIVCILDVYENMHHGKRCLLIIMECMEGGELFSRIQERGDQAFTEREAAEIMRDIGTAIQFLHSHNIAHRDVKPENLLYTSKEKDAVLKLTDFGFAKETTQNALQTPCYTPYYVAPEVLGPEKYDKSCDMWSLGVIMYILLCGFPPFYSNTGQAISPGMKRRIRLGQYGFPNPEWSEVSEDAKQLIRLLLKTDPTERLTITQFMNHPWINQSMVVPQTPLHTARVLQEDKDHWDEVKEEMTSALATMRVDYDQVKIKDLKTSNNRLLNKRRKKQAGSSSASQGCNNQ
Description: as §1

Assay [9] deals with 320 wild-type protein kinases (Homo sapiens, UniProt Q16816). To be noted: singlicate.
Sequence of 320 wild-type protein kinases (Homo sapiens, UniProt Q16816) (Q16816 whole entry): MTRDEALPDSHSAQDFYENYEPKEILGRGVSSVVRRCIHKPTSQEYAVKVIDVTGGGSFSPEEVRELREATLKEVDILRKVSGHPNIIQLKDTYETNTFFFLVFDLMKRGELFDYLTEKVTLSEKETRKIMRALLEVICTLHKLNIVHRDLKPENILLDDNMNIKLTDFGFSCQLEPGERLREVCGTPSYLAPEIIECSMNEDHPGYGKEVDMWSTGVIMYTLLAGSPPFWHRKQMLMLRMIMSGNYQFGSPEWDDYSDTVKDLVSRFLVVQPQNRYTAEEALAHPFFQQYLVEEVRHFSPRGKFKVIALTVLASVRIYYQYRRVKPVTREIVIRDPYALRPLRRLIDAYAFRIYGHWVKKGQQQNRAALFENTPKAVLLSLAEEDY
Description: as §1

The target in assay [10] is 320 wild-type protein kinases (Homo sapiens, UniProt Q9H3Y6). As to conditions: kinase SRMS, singlicate.
Sequence of 320 wild-type protein kinases (Homo sapiens, UniProt Q9H3Y6) (Q9H3Y6 whole entry): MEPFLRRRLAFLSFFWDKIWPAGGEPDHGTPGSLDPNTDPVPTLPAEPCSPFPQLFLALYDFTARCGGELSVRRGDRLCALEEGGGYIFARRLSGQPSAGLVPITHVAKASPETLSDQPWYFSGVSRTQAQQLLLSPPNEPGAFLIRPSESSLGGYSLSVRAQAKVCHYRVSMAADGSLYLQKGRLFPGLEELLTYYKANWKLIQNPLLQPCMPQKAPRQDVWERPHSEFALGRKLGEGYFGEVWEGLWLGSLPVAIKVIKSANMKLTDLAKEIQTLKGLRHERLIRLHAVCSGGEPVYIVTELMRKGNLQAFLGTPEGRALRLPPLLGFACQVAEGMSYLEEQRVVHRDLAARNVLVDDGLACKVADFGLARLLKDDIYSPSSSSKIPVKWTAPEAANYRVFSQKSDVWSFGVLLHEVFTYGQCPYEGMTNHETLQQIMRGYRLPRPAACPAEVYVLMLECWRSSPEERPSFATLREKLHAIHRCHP
Description: as §1

The target of assay [11] is 320 wild-type protein kinases (Homo sapiens, UniProt Q9H422). To be noted: singlicate.
Sequence of 320 wild-type protein kinases (Homo sapiens, UniProt Q9H422) (Q9H422 whole entry): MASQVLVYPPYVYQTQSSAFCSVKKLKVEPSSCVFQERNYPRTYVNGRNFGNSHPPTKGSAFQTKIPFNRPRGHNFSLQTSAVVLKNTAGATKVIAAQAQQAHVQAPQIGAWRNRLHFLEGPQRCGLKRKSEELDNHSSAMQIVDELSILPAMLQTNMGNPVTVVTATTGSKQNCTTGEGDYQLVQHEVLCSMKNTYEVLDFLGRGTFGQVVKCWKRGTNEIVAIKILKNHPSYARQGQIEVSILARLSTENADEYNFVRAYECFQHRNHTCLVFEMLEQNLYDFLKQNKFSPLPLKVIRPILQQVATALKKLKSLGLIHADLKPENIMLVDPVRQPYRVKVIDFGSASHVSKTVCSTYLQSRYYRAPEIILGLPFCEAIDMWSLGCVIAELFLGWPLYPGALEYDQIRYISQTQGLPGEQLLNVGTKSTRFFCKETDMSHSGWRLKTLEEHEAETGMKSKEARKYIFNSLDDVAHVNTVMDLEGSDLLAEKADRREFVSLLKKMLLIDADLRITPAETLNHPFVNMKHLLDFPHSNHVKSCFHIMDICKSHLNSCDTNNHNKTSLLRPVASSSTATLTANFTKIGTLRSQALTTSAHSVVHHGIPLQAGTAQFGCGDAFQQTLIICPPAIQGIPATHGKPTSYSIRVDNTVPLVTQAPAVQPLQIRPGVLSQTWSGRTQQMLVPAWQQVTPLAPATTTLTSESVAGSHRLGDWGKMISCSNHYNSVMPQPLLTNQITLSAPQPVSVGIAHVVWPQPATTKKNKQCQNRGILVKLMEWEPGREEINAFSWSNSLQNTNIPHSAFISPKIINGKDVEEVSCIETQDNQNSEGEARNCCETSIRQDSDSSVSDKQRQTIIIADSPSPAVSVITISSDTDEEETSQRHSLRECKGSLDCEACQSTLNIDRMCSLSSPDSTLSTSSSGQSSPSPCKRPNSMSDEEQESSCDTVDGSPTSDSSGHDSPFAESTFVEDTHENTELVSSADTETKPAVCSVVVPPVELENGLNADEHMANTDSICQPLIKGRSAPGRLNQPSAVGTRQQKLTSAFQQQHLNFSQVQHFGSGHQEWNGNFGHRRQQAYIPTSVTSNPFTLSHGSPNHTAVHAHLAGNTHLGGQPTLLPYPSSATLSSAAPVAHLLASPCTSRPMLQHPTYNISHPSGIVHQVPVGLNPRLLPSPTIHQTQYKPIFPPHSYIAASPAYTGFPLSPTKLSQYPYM
Description: as §1

The target of assay [12] is 320 wild-type protein kinases (Homo sapiens, UniProt Q9H4B4). To be noted: singlicate.
Sequence of 320 wild-type protein kinases (Homo sapiens, UniProt Q9H4B4) (Q9H4B4 whole entry): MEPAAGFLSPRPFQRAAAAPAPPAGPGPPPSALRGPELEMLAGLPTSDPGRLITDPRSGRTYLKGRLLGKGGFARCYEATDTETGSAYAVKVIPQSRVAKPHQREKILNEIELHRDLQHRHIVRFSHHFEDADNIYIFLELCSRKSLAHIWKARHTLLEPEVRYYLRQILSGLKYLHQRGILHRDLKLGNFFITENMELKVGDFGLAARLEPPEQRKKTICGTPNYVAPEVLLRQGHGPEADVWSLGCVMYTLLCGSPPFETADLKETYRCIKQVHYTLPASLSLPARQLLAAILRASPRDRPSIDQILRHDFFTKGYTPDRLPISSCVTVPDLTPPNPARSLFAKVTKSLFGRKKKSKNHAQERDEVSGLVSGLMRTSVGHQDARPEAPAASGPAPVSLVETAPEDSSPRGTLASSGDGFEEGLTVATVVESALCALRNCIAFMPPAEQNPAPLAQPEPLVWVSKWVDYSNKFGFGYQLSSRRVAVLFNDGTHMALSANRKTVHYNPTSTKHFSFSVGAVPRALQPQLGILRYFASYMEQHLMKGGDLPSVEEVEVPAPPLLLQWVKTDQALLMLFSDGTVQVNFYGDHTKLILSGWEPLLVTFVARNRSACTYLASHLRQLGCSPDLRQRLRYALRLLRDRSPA
Description: as §1

Sequence of 320 wild-type protein kinases (Homo sapiens, UniProt O60566) (O60566 whole entry): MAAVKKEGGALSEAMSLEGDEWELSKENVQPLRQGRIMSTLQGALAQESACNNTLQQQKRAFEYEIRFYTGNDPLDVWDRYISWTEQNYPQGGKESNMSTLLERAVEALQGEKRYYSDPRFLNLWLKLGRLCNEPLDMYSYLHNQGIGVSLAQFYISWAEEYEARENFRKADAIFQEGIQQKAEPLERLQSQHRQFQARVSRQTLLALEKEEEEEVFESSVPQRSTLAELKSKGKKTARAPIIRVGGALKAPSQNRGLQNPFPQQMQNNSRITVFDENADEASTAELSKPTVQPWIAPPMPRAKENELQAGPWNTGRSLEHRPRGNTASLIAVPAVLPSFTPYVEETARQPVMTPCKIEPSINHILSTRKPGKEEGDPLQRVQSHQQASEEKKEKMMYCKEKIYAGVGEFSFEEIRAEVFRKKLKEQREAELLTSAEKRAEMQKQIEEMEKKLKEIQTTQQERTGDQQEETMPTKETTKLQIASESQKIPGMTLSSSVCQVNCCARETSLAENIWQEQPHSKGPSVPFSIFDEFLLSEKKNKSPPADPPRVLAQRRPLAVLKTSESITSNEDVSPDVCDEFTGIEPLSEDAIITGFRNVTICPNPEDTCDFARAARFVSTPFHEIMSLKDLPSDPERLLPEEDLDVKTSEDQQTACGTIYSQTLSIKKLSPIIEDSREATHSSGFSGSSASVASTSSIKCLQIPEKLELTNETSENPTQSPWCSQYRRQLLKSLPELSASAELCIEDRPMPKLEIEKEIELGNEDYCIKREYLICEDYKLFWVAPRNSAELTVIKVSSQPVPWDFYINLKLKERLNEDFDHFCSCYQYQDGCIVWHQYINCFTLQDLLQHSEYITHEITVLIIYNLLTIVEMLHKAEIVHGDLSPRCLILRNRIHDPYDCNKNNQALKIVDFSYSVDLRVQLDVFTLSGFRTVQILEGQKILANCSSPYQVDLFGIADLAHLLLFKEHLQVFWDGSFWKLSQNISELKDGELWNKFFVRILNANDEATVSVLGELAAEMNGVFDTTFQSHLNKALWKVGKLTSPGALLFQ

With `C#Cc1cc(Nc2ncnc3cc(OC)c(OC)cc23)ccc1Cl` [Compound 45], the Residual activity in assay [1] (1.0E-06 M) is 115 % of control; in assay [1] (1.0E-07 M), 137 % of control; in assay [2] (MARK3, 1.0E-06 M), 100 % of control; in assay [2] (MARK3, 1.0E-07 M) it was 96 % of control; in assay [3] (1.0E-06 M) it was 128 % of control; in [3] (1.0E-07 M), 99 % of control. Moreover, the Residual activity in assay [4] (CLK1, 1.0E-06 M) was 79 % of control; in assay [4] (CLK1, 1.0E-07 M), 102 % of control; in assay [5] (CLK2, 1.0E-06 M) it was 105 % of control; in [5] (CLK2, 1.0E-07 M), 119 % of control; in [6] (JAK3, 1.0E-06 M), 85 % of control; in [6] (JAK3, 1.0E-07 M), 112 % of control. Moreover, the Residual activity in assay [7] (PAK2, 1.0E-06 M) is listed as 104 % of control; in assay [7] (PAK2, 1.0E-07 M), 101 % of control; in [8] (MAPKAPK3, 1.0E-06 M), 87 % of control; in assay [9] (PHKG1, 1.0E-06 M) it was 85 % of control; in [9] (PHKG1, 1.0E-07 M), 108 % of control; in assay [11] (HIPK3, 1.0E-06 M), 97 % of control. In addition, the Residual activity in [11] (HIPK3, 1.0E-07 M) is given as 102 % of control; in assay [12] (PLK3, 1.0E-06 M) it was 98 % of control; in [12] (PLK3, 1.0E-07 M), 103 % of control. In addition, the “Residual activity, SRMS” value is given as 103 % of control in [10] (assay conc. 1.0E-06 M) and 124 % of control in assay [10] (assay conc. 1.0E-07 M).

For the compound `C#Cc1cc(Nc2ncnc3cc(I)ccc23)ccc1Cl` [Compound 41], the Residual activity is 131 % of control in assay [1] (1.0E-06 M); 122 % of control in [1] (1.0E-07 M); 95 % of control in assay [2] (MARK3, 1.0E-06 M); 97 % of control in assay [2] (MARK3, 1.0E-07 M); 126 % of control in assay [3] (1.0E-06 M); 105 % of control in [3] (1.0E-07 M). Further, the Residual activity in assay [4] (CLK1, 1.0E-06 M) was 89 % of control; in assay [4] (CLK1, 1.0E-07 M) it was 89 % of control; in assay [5] (CLK2, 1.0E-06 M), 106 % of control; in assay [5] (CLK2, 1.0E-07 M), 122 % of control; in assay [6] (JAK3, 1.0E-06 M) it was 78 % of control; in assay [6] (JAK3, 1.0E-07 M), 108 % of control. The Residual activity in [7] (PAK2, 1.0E-06 M) was 102 % of control; in assay [7] (PAK2, 1.0E-07 M) it was 108 % of control; in assay [8] (MAPKAPK3, 1.0E-06 M), 86 % of control; in [8] (MAPKAPK3, 1.0E-07 M), 99 % of control; in [9] (PHKG1, 1.0E-06 M), 94 % of control; in assay [9] (PHKG1, 1.0E-07 M), 97 % of control. Besides, the Residual activity is 103 % of control in assay [11] (HIPK3, 1.0E-06 M); 98 % of control in assay [11] (HIPK3, 1.0E-07 M); 102 % of control in [12] (PLK3, 1.0E-06 M); 109 % of control in assay [12] (PLK3, 1.0E-07 M). In addition, the “Residual activity, SRMS” value is on record as 98 % of control in assay [10] (assay conc. 1.0E-06 M) and 113 % of control in assay [10] (assay conc. 1.0E-07 M).

The record behind these values is publication PMC9329436, “Optimization of the 4-anilinoquin(az)oline scaffold as epidermal growth factor receptor (EGFR) inhibitors for chordoma utilizing a toxicology profiling assay platform” (Scientific Reports, 2022).
